Eleven compounds from patent publication US8648066B2 (Exelixis, Inc., priority 2009, dated 2014) can be followed below.

For this experiment, the target named is mTOR/GbL/Raptor (mTORC1) (Homo sapiens, UniProt P42345). Briefly: mTOR/GbL/Raptor (mTORC1) ELISA assay. In kind it is biochemical. To be noted: phosphorylation of 4E-BP1; 0.2 nM mTORC1, 10 μM ATP; read-out: IC50 in this assay (mTORC1 ELISA). Put shortly: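 Human mTORC1 (0.2 nM) phosphorylated 50 nM His-tagged 4E-BP1 with 10 µM ATP in HEPES pH 7.2 containing 10 mM MnCl2, 120 min at ambient temperature. Substrate was captured on Ni-chelate plates; phospho-4E-BP1 was detected by primary antibody and HRP secondary with luminescence.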
(In general: ELISA stands for enzyme-linked immunosorbent assay.)

By IC50 is commonly meant the concentration that gives 50% inhibition. Consider `CC(=O)OCc1nc(C)c(Cc2ccc(F)cc2)c(N2CCOc3ccc(-c4ccc5[nH]c(C)nc5c4)cc3C2)n1` [Example 311, {5-[4(fluorophenyl)methyl]-4-methyl-6-[7-(2-methyl-1H-benzimidazol-5-yl)-2,3-dihydro-1,4-benzoxazepin-4(5H)-yl]pyrimidin-2-yl}methyl acetate], for which the IC50 is not above 10 nM. With `CCNc1nc2ccc(-c3ccc4c(c3)CN(c3cc(Nc5ccc(OC)cc5)ncn3)CCO4)cc2[nH]1` [Example 276, N-ethyl-6-[4-(6-{[4-(methyloxy)phenyl]amino}pyrimidin-4-yl)-2,3,4,5-tetrahydro-1H-benzoxazepin-7-yl]-1H-benzimidazol-2-amine] the figure was 250 to 1000 nM; with `CN(C)S(=O)(=O)c1cc(-c2ccc3c(c2)CN(c2ncnc4c2CC(C)(C)CC4)CCO3)cnc1N` [Example 380, 2-amino-5-[4-(6,6-dimethyl-5,6,7,8-tetrahydroquinazolin-4-yl)-2,3,4,5-tetrahydro-1,4-benzoxazepin-7-yl]-N,N-dimethylpyridine-3-sulfonamide], 10 to 50 nM. With `Cc1nc(C)c(CC2CC2)c(N2CCOc3ccc(-c4cnc5nc(C6CC6)[nH]c5c4)cc3C2)n1` [Example 547, 7-(2-cyclopropyl-1H-imidazo[4,5-b]pyridin-6-yl)-4-[5-(cyclopropylmethyl)-2,6-dimethylpyrimidin-4-yl]-2,3,4,5-tetrahydro-1,4-benzoxazepine] the figure was 10 to 50 nM. With `CN(C)c1ncc(-c2ccc3c(c2)CN(c2ncnc4c2CC(C)(C)CC4)CCO3)cc1NS(C)(=O)=O` [Example 619, N-{2-(dimethylamino)-5-[4-(6,6-dimethyl-5,6,7,8-tetrahydroquinazolin-4-yl)-2,3,4,5-tetrahydro-1,4-benzoxazepin-7-yl]pyridin-3-yl}methanesulfonamide] the figure was 10 to 50 nM. For the compound `Cc1nc2ncc(-c3ccc4c(c3)CN(c3ncnc(Cl)c3C)CCO4)cc2[nH]1` [Example 481, 4-(6-chloro-5-methylpyrimidin-4-yl)-7-(2-methyl-1H-imidazo[4,5-b]pyridin-6-yl)-2,3,4,5-tetrahydro-1,4-benzoxazepine], the IC50 fell in the range of 50 to 250 nM.

With `CC1(C)CCc2ncnc(N3CCOc4ccc(-c5cnc(N)c(S(=O)(=O)NC[C@@H]6CCCN6)c5)cc4C3)c2C1` [Example 383, 2-amino-5-[4-(6,6-dimethyl-5,6,7,8-tetrahydroquinazolin-4-yl)-2,3,4,5-tetrahydro-1,4-benzoxazepin-7-yl]-N-[(2S)-pyrrolidin-2-ylmethyl]pyridine-3-sulfonamide], the IC50 lay within 50 to 250 nM. `Cc1nc2ccc(-c3ccc4c(c3)CN(c3ncnc5sccc35)CCO4)cc2[nH]1` [Example 45, 7-(2-methyl-1H-benzimidazol-6-yl)-4-thieno[2,3-d]pyrimidin-4-yl-2,3,4,5-tetrahydro-1,4-benzoxazepine]: the IC50 was 250 to 1000 nM. With `Cc1nc2ncc(-c3ccc4c(c3)CN(c3ncnc5c3CC(C)CC5)CCO4)cc2[nH]1` (centres unmarked) [Example 555, 7-(2-methyl-1H-imidazo[4,5-b]pyridin-6-yl)-4-(6-methyl-5,6,7,8-tetrahydroquinazolin-4-yl)-2,3,4,5-tetrahydro-1,4-benzoxazepine] the figure was not above 10 nM; with `Cc1nc2ccc(-c3ccc4c(c3)CN(c3ncnc(C)c3Cc3ccc(C(F)(F)F)cc3)CCO4)cc2[nH]1` [Example 90, 7-(2-methyl-1H-benzimidazol-6-yl)-4-(6-methyl-5-{[4-(trifluoromethyl)phenyl]methyl}pyrimidin-4-yl)-2,3,4,5-tetrahydro-1,4-benzoxazepine], 10 to 50 nM.

`Cc1nc(C)c(CC2CC2)c(N2CCOc3ccc(-c4cnc5nc(C)[nH]c5c4)cc3C2)n1` [Example 492, 4-[5-(cyclopropylmethyl)-2,6-dimethylpyrimidin-4-yl]-7-(2-methyl-1H-imidazo[4,5-b]pyridin-6-yl)-2,3,4,5-tetrahydro-1,4-benzoxazepine]: the IC50 was 10 to 50 nM.
